# What was measured:
# [1] = biological target: human serum albumin (HSA) (Homo sapiens, UniProt P02768); assay: Evaluation of binding to albumin (HSA solution, PBS control)
# Method: Thereafter, the reaction liquids were added to a spin column (Sephadex G-100; manufactured by Cytiva), and centrifuged at 1500×g at 4° C. for 2 minutes. After separation, the radioactivity for each of the column and the eluate was measured with a gamma counter.
# (§1) When a compound to be evaluated binds to albumin to form a composite, the compound passes through the column because of the increased molecular size.
# As in Examples described above, PBS and human albumin were used to evaluate binding to albumin.
# (§2) Thereafter, the reaction liquid was added to a spin column (Sephadex G-50; manufactured by Cytiva), and centrifuged at 1500×g at 4° C. for 2 minutes. After separation, the radioactivity of the column and the eluate was measured with a gamma counter.
# [2] = system: LNCaP cells (PSMA-positive, human prostate cancer); assay: Binding assay using cultured cells (LNCaP); assay type: cell-based; settings: for binding to LNCaP cells on adding an excess amount of the PSMA inhibitor (2-PMPA): 2-PMPA final concentration 100 μM
# Method: LNCaP cells (PSMA-positive, human prostate cancer) and PC-3 cells (PSMA-negative, human prostate cancer) were used. These cells were purchased from American Type Culture Collection and DS Biomedical, respectively. Each of the cells were cultured in RPMI 1640, which is manufactured by NACALAI TESQUE, INC. and contains antibiotics (penicillin and streptomycin) and 10% inactivated fetal bovine serum, at 37° C. under 5% CO2.
# The LNCaP cells and PC-3 cells were each seeded on a 12 well plate at 4.0×10^5 cells/well, and left standing at 37° C. under 5% CO2 for 48 hours.
# The culture medium was removed, and an assay medium (0.5% FBS-containing RPMI 1640 medium) solution (1 mL) containing [^111In]In-PSMA-DA1 or [^111In]In-PSMA-DB (37 kBq) was added. Thereafter, the plate was allowed to stand at 37° C. under 5% CO2 for 1 hour.
# (§3) In the inhibition assays, after removing the culture medium, an assay medium (1 mL) solution containing: [^111In]In-PSMA-DA1 or [^111In]In-PSMA-DB (37 kBq); and 2-(phosphonomethyl) pentanedioic acid (2-PMPA) (PSMA inhibitor; final concentration: 100 μM) was added. Thereafter, the plate was allowed to stand at 37° C. under 5% CO2 for 1 hour.
# After removing the assay medium, each well was washed with an assay medium (1 mL) containing neither the radiolabeled compound nor 2-PMPA, and the cells were lysed with 1 N aqueous sodium hydroxide solution (200 μL×2).
# The radioactivity for each of the assay medium and the cell lysate was measured with a gamma counter. Separately, the total protein concentration in the cell lysate was calculated using BCA Protein Assay Kit, which is manufactured by Thermo Fisher Scientific K.K. The value (% ID/mg protein) obtained by dividing the percentage (% ID) of the sample's radioactivity amount to the added radioactivity amount by the total protein amount was calculated for each sample.
# In the same manner as in Example 1-1 described above, LNCaP cells and PC-3 cells were cultured and cell-binding assay were performed. Evaluation was carried out by the same experimental procedure and statistical method as in Example 1-1, except that 0.5% FBS-containing RPMI 1640 medium (1 mL) containing [^111In]In-PtDA (37 kBq) was used.
# LNCaP cells and PC-3 cells cultured in the same method as in Example 1-1 were each seeded on a 12 well plate at 4.0×10^5 cells/well, and left standing at 37° C. under 5% CO2 for 48 hours. The culture medium was removed, and an assay medium (0.5% FBS-containing RPMI 1640 medium) solution (1 mL) containing the radiolabeled compound (37 kBq each) in Examples 3-1 to 3-3 or Comparative Examples 2-1 to 2-2 was added. Thereafter, the plate was allowed to stand at 37° C. under 5% CO2 for 1 hour.
# as §3, with “experiments,” for “assays,”, “mL)” for “mL) solution”, “the radiolabeled compound described above;” for “[^111In]In-PSMA-DA1 or [^111In]In-PSMA-DB (37 kBq);”
# After removing the assay medium, each well was washed with assay medium (1 mL), and the cells were lysed with 1 N aqueous sodium hydroxide solution (200 μL×2).
# Radioactivity of each of the cell lysates was measured with a gamma counter. Separately, the total protein concentration in the cell lysate was calculated using BCA Protein Assay Kit, which is manufactured by Thermo Fisher Scientific K.K. The value (% ID/mg protein) obtained by dividing the percentage (% ID) of the sample's radioactivity amount to the added radioactivity amount by the total protein amount was calculated for each sample.
# LNCaP cells and PC-3 cells cultured in the same method as in Example 1-1 were each seeded on a 12 well plate at 4.0×10^5 cells/well, and left standing at 37° C. under 5% CO2 for 48 hours.
# Thereafter, the plate was allowed to stand at 37° C. under 5% CO2 for 1 hour. […]
# [3] = system: plasma albumin (human plasma); assay: Evaluation of binding to albumin (human plasma); settings: for radioactivity in the eluate (in words): left to stand in human plasma
# Method: A PBS solution (37 kBq, 50 μL) of [^111In]In-PSMA-DA1 or [^111In]In-PSMA-DB was added to 200 μL of PBS, mouse plasma, human plasma, or a human serum albumin (HSA) solution (45 mg/mL) in PBS, respectively, and the mixtures were allowed to stand at 37° C. for 10 minutes. Thereafter, the reaction liquids were added to a spin column ([…]; manufactured by Cytiva), and centrifuged at 1500×g at 4° C. for 2 minutes. After separation, the radioactivity for each of the column and the eluate was measured with a gamma counter.
# as §1
# As in Example 1-1 described above, PBS, mouse plasma, human plasma, and human albumin were used to evaluate binding to albumin. Evaluation was carried out by the same experimental procedure and statistical method as in Example 1-1, except that a PBS solution (37 kBq, 50 μL) of [^111In]In-PtDA was used.
# as §2
# [4] = left to stand in HSA solution (45 mg/mL)
# human serum albumin (HSA), sequence (P02768 25-609): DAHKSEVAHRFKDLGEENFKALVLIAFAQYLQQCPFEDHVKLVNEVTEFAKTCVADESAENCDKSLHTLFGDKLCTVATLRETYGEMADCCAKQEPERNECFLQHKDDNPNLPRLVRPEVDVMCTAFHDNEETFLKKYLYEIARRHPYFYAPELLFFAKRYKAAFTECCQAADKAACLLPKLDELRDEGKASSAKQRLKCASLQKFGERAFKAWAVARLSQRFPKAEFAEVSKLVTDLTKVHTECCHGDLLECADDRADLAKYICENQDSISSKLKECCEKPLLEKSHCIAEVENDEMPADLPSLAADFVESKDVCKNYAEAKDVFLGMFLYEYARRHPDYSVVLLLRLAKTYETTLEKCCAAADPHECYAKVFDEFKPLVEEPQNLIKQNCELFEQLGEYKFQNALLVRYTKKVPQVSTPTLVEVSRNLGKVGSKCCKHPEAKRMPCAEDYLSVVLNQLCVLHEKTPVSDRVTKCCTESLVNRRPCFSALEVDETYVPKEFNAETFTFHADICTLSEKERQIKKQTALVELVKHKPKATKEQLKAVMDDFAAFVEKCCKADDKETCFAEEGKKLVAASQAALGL
Compound,"radioactivity in the eluate (in words) [1, 4]",radioactivity in the eluate (in words) ([1]; left to stand in PBS),binding to LNCaP cells on adding an excess amount of the PSMA inhibitor (2-PMPA) [2],"binding ability to LNCaP cells compared to PC-3 cells ([2]; 37° C., 1 hour)",radioactivity in the eluate (in words) [3],other results
O=C([O-])CN1CCN(C(CCC(=O)NCCC(=O)N2Cc3ccccc3-c3c(nnn3CCOCCOCCOCCOCCC(=O)NCCCC[C@H](NC(=O)N[C@@H](CCC(=O)O)C(=O)O)C(=O)O)-c3ccccc32)C(=O)[O-])CCN(CC(=O)[O-])CCN(C(CCC(=O)N[C@@H](CCCCNC(=O)CCCc2ccc(I)cc2)C(=O)O)C(=O)[O-])CC1.[111In+3] (some centres unmarked) [[^111In]In-PtDA],–,–,–,–,–,"binding to LNCaP cells with excess PSMA inhibitor (2-PMPA) ([2]; 2-PMPA 100 μM): 0.36 % ID/mg protein; binding to LNCaP cells ([2]; 37° C., 1 hour): 15 % ID/mg protein; radioactivity in the eluate ([1]; PBS): 6.9%; radioactivity in the eluate ([1]; human albumin solution): 92.4%; radioactivity in the eluate ([3]; human plasma): 79.0%"
"O=C(O)CC[C@H](NC(=O)N[C@@H](CCCCNC(=O)[C@H](Cc1ccc2ccccc2c1)NC(=O)[C@H]1CC[C@H](CNC(=O)CCC(C(=O)O)N2CCN(CC(=O)O)CCN(C(CCC(=O)N[C@@H](CCCCNC(=O)CCCc3ccc(I)cc3)C(=O)O)C(=O)O)CCN(CC(=O)O)CC2)CC1)C(=O)O)C(=O)O (some centres unmarked) [[^111In]In-PSMA-NAT-DA1, metal not drawn]",–,–,significantly reduced,high binding ability,significantly high,–
"O=C([O-])CN1CCN(C(CCC(=O)NCCCC[C@H](NC(=O)N[C@@H](CCC(=O)O)C(=O)O)C(=O)O)C(=O)[O-])CCN(CC(=O)[O-])CCN(C(CCC(=O)Nc2ccccc2)C(=O)[O-])CC1.[111In+3] (some centres unmarked) [[^111In]In-PSMA-DB, reference compound]",–,no significant radioactivity,significantly reduced,high binding ability,–,–

# More lines, main results first:
"radioactivity in the eluate (in words) [1, 4]",radioactivity in the eluate (in words) ([1]; left to stand in PBS),Compound,binding to LNCaP cells on adding an excess amount of the PSMA inhibitor (2-PMPA) [2],"binding ability to LNCaP cells compared to PC-3 cells ([2]; 37° C., 1 hour)",radioactivity in the eluate (in words) [3],other results
significantly higher,–,O=C([O-])CN(Cc1cccc(C(=O)[O-])n1)C[C@H](Cc1ccc(NC(=O)[C@H](CCCCNC(=O)CCC(=O)NCCCC[C@H](NC(=O)N[C@@H](CCC(=O)O)C(=O)O)C(=O)O)NC(=O)CCCc2ccc(I)cc2)cc1)N(CC(=O)[O-])Cc1cccc(C(=O)[O-])n1.[111In+3] [[^111In]In-Octapa-2],–,–,–,–
significantly higher,no significant radioactivity,O=C([O-])CN1CCN(C(CCC(=O)NCCCC[C@H](NC(=O)N[C@@H](CCC(=O)O)C(=O)O)C(=O)O)C(=O)[O-])CCN(CC(=O)[O-])CCN(C(CCC(=O)N[C@@H](CCCCNC(=O)CCCc2ccc(I)cc2)C(=O)O)C(=O)[O-])CC1.[111In+3] (some centres unmarked) [[^111In]In-PSMA-DA1],significantly reduced,high binding ability,significantly higher,–

# From US20240174622A1, “COMPOUND AND RADIOACTIVE LABELING COMPOUND” (NIHON MEDI-PHYSICS CO., LTD., priority 2021, published 2024)
